# Legend:
# C57BL/6 mice [1] = experiment: Change in muscle type (slow-twitch myosin staining of plantaris muscle); assay type: in vivo, mouse; settings: 200 mg/kg oral once a day, 8 weeks
# Method: 5-week-old male C57BL/6 mice were grouped with 10 mice per group to evaluate change in muscle type after administration of test substances. The experimental mice were orally administered with Gynostemma pentaphyllum leaf extract, Artemisia princeps extract, astragali radix extract or EPA alone, a mixture of Artemisia princeps extract, Gynostemma pentaphyllum leaf extract and astragali radix extract or a mixture of EPA, Gynostemma pentaphyllum leaf extract and astragali radix extract (200 mg/kg) as test substances for 8 weeks, once a day. The mice were fasted for 12 hours before autopsy. Plantaris muscle was taken from the mice of each test group and frozen in liquid nitrogen. The frozen tissue was sliced to 10-μm thickness using a cryotome, fixed in acetone for 10 minutes, and washed 3 times with PBS. After blocking for 2 hours with PBS containing 10% FBS, the tissue sections were treated with anti-slow-twitch myosin antibody (Abcam, Cambridge, UK) as primary antibody and with fluorescein isothiocyanate (FITC)-conjugated anti-mouse IgG antibody (Molecular Probes) as secondary antibody. After mounting with antifade solution, the sections were examined by confocal microscopy.
# C57BL/6 mice [2] = experiment: Blood analysis (blood sugar, serum triglyceride and cholesterol); assay type: in vivo, mouse; settings: 200 mg/kg oral once a day, 8 weeks
# Method: 5-week-old male C57BL/6 mice were grouped with 10 mice per group. They were orally administered with Gynostemma pentaphyllum leaf extract, Artemisia princeps extract, astragali radix extract or EPA alone, a mixture of Artemisia princeps extract, Gynostemma pentaphyllum leaf extract and astragali radix extract or a mixture of EPA, Gynostemma pentaphyllum leaf extract and astragali radix extract (200 mg/kg) as test substances for 8 weeks, once a day. Then, blood analysis was performed to evaluate blood sugar level and serum triglyceride and cholesterol levels. The blood sugar level was measured using the Accu-Check Active kit (Roche Diagnostics, Seoul, Korea). The blood sample was centrifuged at 3000 rpm for 10 minutes to separate serum. Triglyceride and cholesterol levels in the separated serum were analyzed using the […] analyzer (Vital Scientific, […], The Netherlands).
compound,measurement,setting,value
"CC/C=C\C/C=C\C/C=C\C/C=C\C/C=C\CCCC(=O)O [EPA, eicosapentaenoic acid]",Fast-twitch muscle (%),C57BL/6 mice [1],70.6 ± 3.6%
same,Slow-twitch muscle (%),C57BL/6 mice [1],29.4 ± 4.2%
same,Blood sugar,C57BL/6 mice [2],181.2 ± 10.9 mg/dL
same,Cholesterol,C57BL/6 mice [2]; serum,164.9 ± 12.1 mg/dL
same,Triglyceride,C57BL/6 mice [2]; serum,101.23 ± 11.3 mg/dL

# Reference: US9084785B2, “Composition for accelerating change in muscle type” (AMOREPACIFIC CORPORATION, priority 2010, dated 2015)
